Data as given in patent publication US20140287923A1, “METHOD FOR ENHANCING CROP YIELDS BY APPLICATION OF TREHALOSE” (Stoller Enterprises, Inc., priority 2012, published 2014).

Columns and labels:
Format in all cases: in vivo
Potato, cultivar Eva = experiment: Yield of Eva potato treated foliarly with trehalose 4 weeks before harvest; details: for pounds per graded size #4 (>10 ounces): control 0.0; for pounds per graded size #1 (0 to 4 ounces): control 0.8; for pounds per graded size #2 (>4 ounces) / pounds per graded size #3 (>6 ounces): control 6.8; for pounds Total: control 14.4
Potatoes, cultivar Eva = experiment: Reducing sugar content of potato tubers after foliar trehalose, cultivar Eva; details: for Reducing Sugar Content of Tubers (absorbance at 570 nm): 100 grams/acre foliar, n = 16
Procedure: Potatoes, cultivar Eva in Pennsylvania, were treated either 4 or 2 weeks before harvest with a foliar application of trehalose at the rate of 100 grams per acre. The potatoes were harvested and shipped to College Station, Texas for analysis of reducing sugars. […] (Table 4).

[1] = tested on: Field Corn, cultivar Asgrow 7371; experiment: Foliar trehalose on field corn yield, cultivar Asgrow 7371; details: trehalose 100 grams per acre foliar, 4 and 5 weeks after V16 stage
Source text: Field Corn, cultivar Asgrow 7371, was twice treated foliarly before harvest with an aqueous solution of trehalose at the rate of 100 grams of trehalose per acre, at 4 weeks after the V16 stage of growth, and once again foliarly at the same rate at 5 weeks after the V16 stage of growth.

[2] = tested on: Field corn, Cultivar Dekalb C6805; experiment: Foliar trehalose on field corn yield, cultivar Dekalb C6805; details: for Yield of field corn (bushels per acre): control 155; for Weight of 1,000 kernels (grams): control 261
Procedure: Field corn, Cultivar Dekalb C6805, was treated foliarly with an aqueous solution of trehalose at the rate of 100 grams per acre, either at the […] stage of growth or 3 weeks before the […] stage of growth, in southern Texas. Field corn yields were increased with this cultivar from 155 bushels per acre to an unprecedented 337 bushels per acre for this locale, characterized by hot, windy climate and poor soils and high levels of pests including disease and insects. Seed weights of the corn kernels were increased.

winter wheat = experiment: Foliar trehalose on yield of winter wheat; details: 100 g/a Foliar, 4 weeks before harvest; control 0%; highly significant
Procedure: Wheat, grown in Ontario Canada, was treated foliarly with an aqueous solution of trehalose at the rate of 100 grams per acre, 4 weeks before harvest.

Sugar Beets = experiment: Foliar trehalose on sugar beet yield and quality
Source text: Sugar Beets were foliarly treated with Trehalose at the rate of 300 grams per acre in Yuma Colo.

[3] = tested on: Potatoes, cultivar Snowden; experiment: Reducing sugar content of potato tubers after foliar trehalose, cultivar Snowden; details: 4 or 2 weeks before harvest, inversely proportional to the dose of trehalose
Procedure: Potatoes, cultivar Snowden in Wisconsin, were treated either 4 or 2 weeks before harvest with a foliar application of trehalose at the rate of 100 grams per acre. The potatoes were harvested and shipped to College Station, Tex. for analysis of reducing sugars.

Sugar Cane = experiment: Trehalose on sugar per acre from sugar cane; details: 4 weeks before harvest
Procedure: Sugar Cane, grown in southern Texas was treated 4 weeks before harvest with an aqueous solution of Trehalose at the rate of 450 grams per acre, gave an extra 897 pounds of sugar from sugar cane production.

[4] = 100 grams per acre foliar at the V16 stage of growth
[5] = 100 grams per acre foliar, 3 wk prior to V16 growth stage

## OC[C@H]1O[C@H](O[C@H]2O[C@H](CO)[C@@H](O)[C@H](O)[C@H]2O)[C@H](O)[C@@H](O)[C@@H]1O [Trehalose, trehalose]
Potato, cultivar Eva; 100 grams per acre foliar
  Potato yield: increased yields
Potato, cultivar Eva; Trehalose 25 g foliar
  pounds per graded size #4 (>10 ounces): 0.0 pounds
  pounds per graded size #1 (0 to 4 ounces): 1.1 pounds
  pounds per graded size #2 (>4 ounces): 7.2 pounds
  pounds per graded size #3 (>6 ounces): 8.6 pounds
  pounds Total: 16.9 pounds
Potato, cultivar Eva; Trehalose 50 g foliar
  pounds per graded size #4 (>10 ounces): 0.0 pounds
  pounds per graded size #1 (0 to 4 ounces): 0.9 pounds
  pounds per graded size #2 (>4 ounces): 7.0 pounds
  pounds per graded size #3 (>6 ounces): 8.3 pounds
  pounds Total: 16.2 pounds
Potato, cultivar Eva; Trehalose 100 g foliar
  pounds per graded size #4 (>10 ounces): 0.4 pounds
  pounds per graded size #1 (0 to 4 ounces): 0.8 pounds
  pounds per graded size #2 (>4 ounces): 7.4 pounds
  pounds per graded size #3 (>6 ounces): 8.4 pounds
  pounds Total: 17.0 pounds
Potatoes, cultivar Eva; 100 grams per acre foliar, 4 weeks before harvest
  Reducing sugars in the potato tubers: decreased
Potatoes, cultivar Eva; 2 weeks before Harvest, control 0.200 ± 0.08
  Reducing Sugar Content of Tubers (absorbance at 570 nm): 0.211 ± 0.12 absorbance at 570 nm
Potatoes, cultivar Eva; 4 weeks before Harvest, control 0.217 ± 0.15
  Reducing Sugar Content of Tubers (absorbance at 570 nm): 0.125 ± 0.03 absorbance at 570 nm
[1]
  Yield increase by treatment of trehalose: up to 125%
[1]; Cultivar 7371, control 103 bu/acre
  Yield of field corn (bushels per acre): 231 bu/acre
[1]; Cultivar 7371, control 288 grams
  Weight of 1,000 kernels (grams): 368 grams
[2]; 100 grams per acre foliar
  Seed weights of the corn kernels: increased
[2]; [4]
  Yield of field corn (bushels per acre): 311 bushels per acre
  Weight of 1,000 kernels (grams): 286 grams
[2]; [5]
  Yield of field corn (bushels per acre): 327 bushels per acre
  Weight of 1,000 kernels (grams): 294 grams
[2]; 100 grams per acre foliar, V16 or 3 weeks before V16, increased from 155
  Field corn yield: 337 bushels per acre
Winter wheat
  increase in yield of winter wheat: 9.5%, highly significant
Sugar Beets; 300 g/a Foliar, 2 weeks before harvest, control 1.85
  Percent SLM: 1.22%
Sugar Beets; 300 g/a Foliar, 2 weeks before harvest, control 15.83%
  Percent Sugar: 17.23%
Sugar Beets; 300 g/a Foliar, 2 weeks before harvest, control 27.79
  Sugar Beet yield (tons per acre): 28.4 tons per acre
Sugar Beets; 300 g/a Foliar, 2 weeks before harvest, control 8797
  Pounds of Sugar per acre: 9770 Pounds of Sugar per acre
Sugar Beets; 300 grams per acre foliar
  Extra sugar per acre transferred to the beets: nearly half an extra ton of sugar per acre
Sugar Beets; 300 grams per acre, 2 weeks before harvest
  % SLM: decided reduction
[3]
  Reducing sugar content of potato tubers: decrease in reducing sugar content
Sugar Cane; 450 g/a Foliar, control 0
  increase in lb of sugar per acre from sugar cane: 897 lb
Sugar Cane; 450 grams per acre
  extra sugar from sugar cane production: 897 pounds
